The values below come from article PMC5218480 (PLoS ONE, 2017).

The subject of this assay is MV-4-11 cells. Kind of assay: Gene expression microarray analysis (Affymetrix PrimeView) and GSEA. In kind it is cell-based, human. More on the design: RFU PODN (11730768_x_at) / Fold change /veh PODN (11730768_x_at) / RFU LINC00158 (11744669_a_at) / Fold change /veh LINC00158 (11744669_a_at) / RFU DUSP10 (11751237_a_at) / Fold change /veh DUSP10 (11751237_a_at) / RFU ID3 (11757404_x_at) / Fold change /veh ID3 (11757404_x_at) / RFU PLEKHG5 (11737974_s_at) / Fold change /veh PLEKHG5 (11737974_s_at) / RFU LRRC4B (11730491_at) / Fold change /veh LRRC4B (11730491_at) / RFU GIMAP4 (11747438_a_at) / Fold change /veh GIMAP4 (11747438_a_at) / RFU KRT8 (11758183_x_at) / Fold change /veh KRT8 (11758183_x_at) / RFU CNN1 (11734310_a_at) / Fold change /veh CNN1 (11734310_a_at) / RFU VPS37D (11726825_at) / Fold change /veh VPS37D (11726825_at) / RFU C10orf10 (11716522_x_at) / Fold change /veh C10orf10 (11716522_x_at) / RFU KIR2DL2 /// KIR2DL4 /// KIR2DL5A /// KIR2DL5B /// KIR2DS1 /// KIR2DS2 /// KIR2DS3 /// KIR2DS4 /// KIR3DL3 /// KIR3DL3 /// KIR3DS1 (11738374_at) / Fold change /veh KIR2DL2 /// KIR2DL4 /// KIR2DL5A /// KIR2DL5B /// KIR2DS1 /// KIR2DS2 /// KIR2DS3 /// KIR2DS4 /// KIR3DL3 /// KIR3DL3 /// KIR3DS1 (11738374_at) / RFU C1QL1 (11718748_at) / Fold change /veh C1QL1 (11718748_at) / RFU TMPRSS4 (11747572_a_at) / Fold change /veh TMPRSS4 (11747572_a_at) / RFU HAMP (11756126_x_at) / Fold change /veh HAMP (11756126_x_at) / RFU RNFT2 (11725882_a_at) / Fold change /veh RNFT2 (11725882_a_at) / RFU NR4A2 (11747474_a_at) / Fold change /veh NR4A2 (11747474_a_at) / RFU ABCC12 (11746883_a_at) / Fold change /veh ABCC12 (11746883_a_at) / RFU TMEM136 (11760407_x_at) / Fold change /veh TMEM136 (11760407_x_at) / RFU CLDN22 /// WWC2 (11732394_at) / Fold change /veh CLDN22 /// WWC2 (11732394_at) / RFU HLA-DPB1 (11760878_x_at) / Fold change /veh HLA-DPB1 (11760878_x_at) / RFU SPINT1 (11716480_a_at) / Fold change /veh SPINT1 (11716480_a_at) / RFU GAP43 (11754022_s_at) / Fold change /veh GAP43 (11754022_s_at) / RFU A4GNT (11735810_at) / Fold change /veh A4GNT (11735810_at) / RFU PRB3 (11715151_x_at) / Fold change /veh PRB3 (11715151_x_at) / RFU TUBB4B (11761932_at) / Fold change /veh TUBB4B (11761932_at) / RFU CAPN14 (11732068_a_at) / Fold change /veh CAPN14 (11732068_a_at) / RFU TMCC2 (11721928_a_at) / Fold change /veh TMCC2 (11721928_a_at) / RFU IRGQ (11745062_a_at) / Fold change /veh IRGQ (11745062_a_at) / RFU FAM174B (11720279_a_at) / Fold change /veh FAM174B (11720279_a_at) / RFU TMPRSS4 (11748680_a_at) / Fold change /veh TMPRSS4 (11748680_a_at) / RFU FAM212B (11763350_a_at) / Fold change /veh FAM212B (11763350_a_at) / RFU PLEKHG5 (11743358_a_at) / Fold change /veh PLEKHG5 (11743358_a_at) / RFU ZSCAN30 (11745921_a_at) / Fold change /veh ZSCAN30 (11745921_a_at) / RFU CMKLR1 (11741424_a_at) / Fold change /veh CMKLR1 (11741424_a_at) / RFU LOC101060620 /// MAPK8IP1 (11723275_at) / Fold change /veh LOC101060620 /// MAPK8IP1 (11723275_at) / RFU SPTSSB (11747773_x_at) / Fold change /veh SPTSSB (11747773_x_at) / RFU PRSS12 (11739890_at) / Fold change /veh PRSS12 (11739890_at) / RFU BIN1 (11741810_x_at) / Fold change /veh BIN1 (11741810_x_at) / RFU WNT11 (11732464_a_at) / Fold change /veh WNT11 (11732464_a_at) / RFU C10orf10 (11716521_a_at) / Fold change /veh C10orf10 (11716521_a_at) / RFU C5orf56 (11738089_at) / Fold change /veh C5orf56 (11738089_at) / RFU CYB561 (11721691_x_at) / Fold change /veh CYB561 (11721691_x_at) / RFU ANKRD19P (11752326_a_at) / Fold change /veh ANKRD19P (11752326_a_at) / RFU OR2T12 /// OR2T33 /// OR2T8 (11738714_s_at) / Fold change /veh OR2T12 /// OR2T33 /// OR2T8 (11738714_s_at) / RFU VCAN (11748164_a_at) / Fold change /veh VCAN (11748164_a_at) / RFU JSRP1 (11732532_at) / Fold change /veh JSRP1 (11732532_at) / RFU KRTAP10-11 (11738290_x_at) / Fold change /veh KRTAP10-11 (11738290_x_at) / RFU MYO3A (11730013_a_at) / Fold change /veh MYO3A (11730013_a_at) / RFU EBF3 (11725865_a_at) / Fold change /veh EBF3 (11725865_a_at) / RFU CAMK2N1 (11719241_x_at) / Fold change /veh CAMK2N1 (11719241_x_at) / RFU C5orf56 (11738088_a_at) / Fold change /veh C5orf56 (11738088_a_at) / RFU OLFML3 (11715873_a_at) / Fold change /veh OLFML3 (11715873_a_at) / RFU LOC100653217 /// NTM (11731650_a_at) / Fold change /veh LOC100653217 /// NTM (11731650_a_at) / RFU MAPK11 (11762145_a_at) / Fold change /veh MAPK11 (11762145_a_at) / RFU FIZ1 (11724087_x_at) / Fold change /veh FIZ1 (11724087_x_at) / RFU OASL (11726364_x_at) / Fold change /veh OASL (11726364_x_at) / RFU SOX15 (11748057_x_at) / Fold change /veh SOX15 (11748057_x_at) / RFU CD79A (11719716_a_at) / Fold change /veh CD79A (11719716_a_at) / RFU HIST1H1D (11736915_at) / Fold change /veh HIST1H1D (11736915_at) / RFU CASKIN2 (11723855_a_at) / Fold change /veh CASKIN2 (11723855_a_at) / RFU LOC730098 (11760151_x_at) / Fold change /veh LOC730098 (11760151_x_at) / RFU OR4N2 (11742367_at) / Fold change /veh OR4N2 (11742367_at) / RFU PRRT2 (11749266_a_at) / Fold change /veh PRRT2 (11749266_a_at) / RFU SNX32 (11753110_a_at) / Fold change /veh SNX32 (11753110_a_at) / RFU CDHR5 (11726645_a_at) / Fold change /veh CDHR5 (11726645_a_at) / RFU RCAN1 (11760418_a_at) / Fold change /veh RCAN1 (11760418_a_at) / RFU FAM167A (11723789_a_at) / Fold change /veh FAM167A (11723789_a_at) / RFU FAM26E (11764081_at) / Fold change /veh FAM26E (11764081_at) / RFU ISYNA1 (11749810_s_at) / Fold change /veh ISYNA1 (11749810_s_at) / RFU ACY1 (11761880_at) / Fold change /veh ACY1 (11761880_at) / RFU 11764098_at / Fold change /veh 11764098_at / RFU SAMD14 (11745864_x_at) / Fold change /veh SAMD14 (11745864_x_at) / RFU NPB (11741838_a_at) / Fold change /veh NPB (11741838_a_at) / RFU TMPRSS6 (11731388_a_at) / Fold change /veh TMPRSS6 (11731388_a_at) / RFU KRTAP10-2 (11738614_at) / Fold change /veh KRTAP10-2 (11738614_at) / RFU ARHGAP8 /// PRR5-ARHGAP8 (11727945_x_at) / Fold change /veh ARHGAP8 /// PRR5-ARHGAP8 (11727945_x_at) / RFU KRTAP5-7 /// NADSYN1 (11734609_at) / Fold change /veh KRTAP5-7 /// NADSYN1 (11734609_at) / RFU RASL12 (11751679_a_at) / Fold change /veh RASL12 (11751679_a_at) / RFU CDKN2B (11736163_a_at) / Fold change /veh CDKN2B (11736163_a_at) / RFU PRF1 (11729649_at) / Fold change /veh PRF1 (11729649_at) / RFU, ZNF638 /// ZNF638-IT1 / Fold change vs veh, ZNF638 /// ZNF638-IT1 / RFU, PANK3 / Fold change vs veh, PANK3 / RFU, SH3YL1 / Fold change vs veh, SH3YL1 / RFU, ZEB2 / Fold change vs veh, ZEB2 / RFU, NRIP1 / Fold change vs veh, NRIP1 / RFU, PTTG1IP / Fold change vs veh, PTTG1IP / RFU, CAPN2 / Fold change vs veh, CAPN2 / RFU, MED14 / Fold change vs veh, MED14 / RFU, SNORA58 / Fold change vs veh, SNORA58 / RFU, C1orf63 / Fold change vs veh, C1orf63 / RFU, LRRFIP1 / Fold change vs veh, LRRFIP1 / RFU, NDUFAF7 / Fold change vs veh, NDUFAF7 / RFU, SLC12A2 / Fold change vs veh, SLC12A2 / RFU, IBTK / Fold change vs veh, IBTK / RFU, ESF1 / Fold change vs veh, ESF1 / Fold change vs veh, TMEM50B / RFU, TAOK1 / Fold change vs veh, TAOK1 / RFU, ACBD3 / Fold change vs veh, ACBD3 / RFU, TMA16 / Fold change vs veh, TMA16 / RFU, RWDD3 / Fold change vs veh, RWDD3 / RFU, BCAT1 / Fold change vs veh, BCAT1 / RFU, EDEM3 / Fold change vs veh, EDEM3 / RFU, TMEM33 / Fold change vs veh, TMEM33 / RFU, WDR75 / Fold change vs veh, WDR75 / RFU, AHCTF1 / Fold change vs veh, AHCTF1 / RFU, TFRC / Fold change vs veh, TFRC / RFU, ZDHHC17 / Fold change vs veh, ZDHHC17 / RFU, NOM1 / Fold change vs veh, NOM1 / RFU, ARL8B / Fold change vs veh, ARL8B / RFU, ZBTB11 / Fold change vs veh, ZBTB11 / RFU, TAMM41 / Fold change vs veh, TAMM41 / RFU, KIAA1704 /// LOC100996395 / Fold change vs veh, KIAA1704 /// LOC100996395 / RFU, ING1 / Fold change vs veh, ING1 / RFU, TRMT61B / Fold change vs veh, TRMT61B / RFU, FUBP3 / Fold change vs veh, FUBP3 / RFU, TP53 / Fold change vs veh, TP53 / RFU, TNKS2 / Fold change vs veh, TNKS2 / RFU, ZFP14 / Fold change vs veh, ZFP14 / RFU, ACTR2 / Fold change vs veh, ACTR2 / RFU, PPP3R1 / Fold change vs veh, PPP3R1 / RFU, PIK3R1 / Fold change vs veh, PIK3R1 / RFU, HNRNPA1 / Fold change vs veh, HNRNPA1 / RFU, RNF170 / Fold change vs veh, RNF170 / RFU, ZNF28 / Fold change vs veh, ZNF28 / RFU, RNGTT / Fold change vs veh, RNGTT / RFU, OGT / Fold change vs veh, OGT / RFU, BRD1 / Fold change vs veh, BRD1 / RFU, MARS / Fold change vs veh, MARS / RFU, ZNF655 / Fold change vs veh, ZNF655 / RFU, FAHD1 / Fold change vs veh, FAHD1 / RFU, BDP1 / Fold change vs veh, BDP1 / RFU, LRRCC1 / Fold change vs veh, LRRCC1 / RFU, ARID1A / Fold change vs veh, ARID1A / RFU, ZNF146 / Fold change vs veh, ZNF146 / RFU, ZNF330 / Fold change vs veh, ZNF330 / RFU, GPN3 / Fold change vs veh, GPN3 / RFU, C9orf123 / Fold change vs veh, C9orf123 / RFU, N4BP2L2 / Fold change vs veh, N4BP2L2 / RFU, ARFIP1 / Fold change vs veh, ARFIP1 / RFU, FAM179B / Fold change vs veh, FAM179B / RFU, BCL10 / Fold change vs veh, BCL10 / RFU, UHRF1BP1L / Fold change vs veh, UHRF1BP1L / RFU, BET1 / Fold change vs veh, BET1 / RFU, CNOT2 / Fold change vs veh, CNOT2 / RFU, ZNF268 / Fold change vs veh, ZNF268 / Fold change vs veh, ZNF507 / RFU, DGCR2 / Fold change vs veh, DGCR2 / RFU, WDSUB1 / Fold change vs veh, WDSUB1 / Fold change vs veh, HSP90B1 /// MIR3652 / RFU, ADSS / Fold change vs veh, ADSS / RFU, GK / Fold change vs veh, GK / RFU, ZNF148 / Fold change vs veh, ZNF148 / RFU, TAF9 / Fold change vs veh, TAF9 / RFU, SLC1A5 / Fold change vs veh, SLC1A5 / RFU, SLMO2 / Fold change vs veh, SLMO2 / RFU, ABCC4 / Fold change vs veh, ABCC4 / RFU, LOC101060439 /// RAP1B / Fold change vs veh, LOC101060439 /// RAP1B / RFU, RFX7 / Fold change vs veh, RFX7 / RFU, GTPBP10 / Fold change vs veh, GTPBP10 / RFU, CNEP1R1 / Fold change vs veh, CNEP1R1 / RFU, BIVM-ERCC5 /// ERCC5 / Fold change vs veh, BIVM-ERCC5 /// ERCC5 / RFU, ILF3 / Fold change vs veh, ILF3 / RFU 11762660_at / Fold change /veh 11762660_at / RFU VCAN (11757783_s_at) / Fold change /veh VCAN (11757783_s_at) / RFU DDX43 (11728927_at) / Fold change /veh DDX43 (11728927_at) / RFU KRT8 (11758188_x_at) / Fold change /veh KRT8 (11758188_x_at) / RFU NKD1 (11759106_at) / Fold change /veh NKD1 (11759106_at) / RFU SRD5A1 (11742802_a_at) / Fold change /veh SRD5A1 (11742802_a_at) / RFU TPSAB1 /// TPSB2 (11721975_s_at) / Fold change /veh TPSAB1 /// TPSB2 (11721975_s_at) / RFU GSTM3 (11746129_a_at) / Fold change /veh GSTM3 (11746129_a_at) / RFU IL23R (11737362_x_at) / Fold change /veh IL23R (11737362_x_at) / RFU TMEM51 (11727254_a_at) / Fold change /veh TMEM51 (11727254_a_at) / RFU PIWIL2 (11732686_x_at) / Fold change /veh PIWIL2 (11732686_x_at) / RFU ORM1 (11744905_x_at) / Fold change /veh ORM1 (11744905_x_at) / RFU CCDC152 (11743942_at) / Fold change /veh CCDC152 (11743942_at) / RFU ECM1 (11717891_a_at) / Fold change /veh ECM1 (11717891_a_at) / RFU IL23R (11748794_a_at) / Fold change /veh IL23R (11748794_a_at) / RFU TNFAIP8L3 (11732012_x_at) / Fold change /veh TNFAIP8L3 (11732012_x_at) / RFU MBOAT4 (11741988_at) / Fold change /veh MBOAT4 (11741988_at) / RFU 11764193_at / Fold change /veh 11764193_at / RFU TMEM53 (11763286_at) / Fold change /veh TMEM53 (11763286_at) / RFU MAGEB2 (11727129_at) / Fold change /veh MAGEB2 (11727129_at) / RFU TMEM200A (11744735_a_at) / Fold change /veh TMEM200A (11744735_a_at) / RFU CCDC152 (11751479_a_at) / Fold change /veh CCDC152 (11751479_a_at) / RFU FAM211A (11726209_a_at) / Fold change /veh FAM211A (11726209_a_at) / RFU RGS16 (11746705_a_at) / Fold change /veh RGS16 (11746705_a_at) / RFU VCAN (11755009_s_at) / Fold change /veh VCAN (11755009_s_at) / RFU RHOB (11743442_s_at) / Fold change /veh RHOB (11743442_s_at) / RFU RGS16 (11720943_a_at) / Fold change /veh RGS16 (11720943_a_at) / RFU RGS16 (11720944_at) / Fold change /veh RGS16 (11720944_at) / RFU, VPS4B / Fold change vs veh, VPS4B / RFU, CREB1 / Fold change vs veh, CREB1 / RFU, DNAJC13 / Fold change vs veh, DNAJC13 / RFU, GNAQ / Fold change vs veh, GNAQ / RFU, CDK5R1 / Fold change vs veh, CDK5R1 / RFU, ZRANB3 / Fold change vs veh, ZRANB3 / RFU, CUL4A / Fold change vs veh, CUL4A / RFU, CCNY / Fold change vs veh, CCNY / RFU, UFL1 / Fold change vs veh, UFL1 / RFU, COG3 / Fold change vs veh, COG3 / RFU, DIAPH2 / Fold change vs veh, DIAPH2 / RFU, SKA2 / Fold change vs veh, SKA2 / RFU, AFF3 / Fold change vs veh, AFF3 / RFU, LMF1 / Fold change vs veh, LMF1 / RFU, IPO11 / Fold change vs veh, IPO11 / RFU, DFFB / Fold change vs veh, DFFB / RFU, FOXP1 / Fold change vs veh, FOXP1 / RFU, CARD8 / Fold change vs veh, CARD8 / RFU, STRN3 / Fold change vs veh, STRN3 / RFU, ADK / Fold change vs veh, ADK / RFU, RASSF2 / Fold change vs veh, RASSF2 / RFU, WIPF1 / Fold change vs veh, WIPF1 / RFU, LARP1B / Fold change vs veh, LARP1B / RFU, RASA1 / Fold change vs veh, RASA1 / RFU, RB1 / Fold change vs veh, RB1 / RFU, PPFIA1 / Fold change vs veh, PPFIA1 / RFU, MAT2A / Fold change vs veh, MAT2A / RFU, CCT5 / Fold change vs veh, CCT5 / RFU, WDR92 / Fold change vs veh, WDR92 / RFU, CUX1 / Fold change vs veh, CUX1 / RFU, TTC7A / Fold change vs veh, TTC7A / RFU, TMEM135 / Fold change vs veh, TMEM135 / RFU, DEPTOR / Fold change vs veh, DEPTOR / RFU, CPM / Fold change vs veh, CPM / RFU, DNAJB6 / Fold change vs veh, DNAJB6 / RFU, CACNA2D3 / Fold change vs veh, CACNA2D3 / RFU, DTX4 / Fold change vs veh, DTX4 / RFU, TFCP2 / Fold change vs veh, TFCP2 / RFU, GMCL1 /// GMCL1P1 / Fold change vs veh, GMCL1 /// GMCL1P1 / RFU, AEBP2 / Fold change vs veh, AEBP2 / RFU, SNHG1 /// SNORD22 /// SNORD25 /// SNORD26 /// SNORD27 /// SNORD28 /// SNORD29 /// SNORD31 / Fold change vs veh, SNHG1 /// SNORD22 /// SNORD25 /// SNORD26 /// SNORD27 /// SNORD28 /// SNORD29 /// SNORD31 / Fold change (Aza/veh), C12orf56 (ProbeSet 11735607_a_at) / Fold change (ACY-1035/veh), C12orf56 (ProbeSet 11735607_a_at) / Fold change (Aza/veh), FGFR1OP (ProbeSet 11751329_s_at) / Fold change (ACY-1035/veh), FGFR1OP (ProbeSet 11751329_s_at) / Fold change (Aza/veh), VPS36 (ProbeSet 11739960_a_at) / Fold change (ACY-1035/veh), VPS36 (ProbeSet 11739960_a_at) / RFU SYPL1 (11715823_x_at) / Fold change /veh SYPL1 (11715823_x_at) / RFU IGFBP7 (11715501_s_at) / Fold change /veh IGFBP7 (11715501_s_at) / RFU REEP3 (11722064_at) / Fold change /veh REEP3 (11722064_at) / RFU IGLL1 (11728026_x_at) / Fold change /veh IGLL1 (11728026_x_at): dose or concentration left out as unconfirmed. As to conditions: MV-4-11 cells, 48 hours.

Consider `Nc1ncn([C@@H]2O[C@H](CO)[C@@H](O)[C@H]2O)c(=O)n1` [azacitidine], for which the “Fold change /veh TNFAIP8L3 (11732012_x_at)” value stood at 1.33.
